{"source": "patent US20250290117A1", "about": "“MOLECULAR PHENOTYPIC ANTIMICROBIAL SUSCEPTIBILITY TESTING” (priority 2024, published 2025)", "key": {"Escherichia coli": {"tested_on": "Escherichia coli", "assay": "Molecular phenotypic antimicrobial susceptibility test (extraction or DNA purification prior to PCR)", "type": "cell-based", "how_it_was_run": "(§1)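 Patient specimens in boric acid were grown in culture medium, adjusted to 0.5 McFarland by optical density, then incubated 12-16 hours with antimicrobials in Mueller Hinton Broth at breakpoint concentrations. Growth was read by semi-quantitative PCR, alongside a no-antimicrobial well for pathogen load.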"}, "M. morganii": {"tested_on": "M. morganii", "assay": "Molecular phenotypic antimicrobial susceptibility test, specimen with two detected pathogens incubated together without isolation", "type": "cell-based, Morganella morganii", "settings": "M. morganii in specimen with two detected pathogens (E. coli and M. morganii) incubated together", "how_it_was_run": "(§2)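 Specimen in boric acid; pathogens identified by PCR while a parallel aliquot grew 4-6 h in liquid medium. With >10,000 cells/mL detected, culture diluted to 0.5 McFarland and exposed to antimicrobials in broth (e.g. Mueller Hinton) at breakpoint concentrations; both pathogens incubated together unisolated, growth read by molecular methods against medium-only wells.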"}, "[1]": {"tested_on": "pathogens of clinical samples", "assay": "Molecular phenotypic antimicrobial susceptibility test of clinical samples, extraction DNA purification step prior to PCR (Table 6)", "type": "cell-based", "how_it_was_run": "as §1"}, "E. coli": {"tested_on": "E. coli", "assay": "Molecular phenotypic antimicrobial susceptibility test, specimen with two detected pathogens incubated together without isolation", "type": "cell-based, Escherichia coli", "settings": "E. coli in specimen with two detected pathogens (E. coli and M. morganii) incubated together", "how_it_was_run": "as §2"}}}
{"smiles": "O=C1CN(/N=C/c2ccc([N+](=O)[O-])o2)C(=O)N1", "note": "[Nitrofurantoin]", "values": [{"measurement": "Ct at Sensitive Breakpoint", "setting": "Escherichia coli; E. coli isolate 1, Ct at control (average) 21.238", "value": 35.690}, {"measurement": "Molecular Antimicrobial Susceptibility Result", "setting": "Escherichia coli; E. coli isolate 1, at sensitive breakpoint", "value": "Sensitive (Antimicrobial wells with pathogen load detected below the control wells (typically >2 cycle thresholds later) may be reported as Sensitive)"}, {"measurement": "Ct at Sensitive Breakpoint", "setting": "Escherichia coli; E. coli isolate 2, Ct at control (average) 21.270", "value": 30.495}, {"measurement": "Molecular Antimicrobial Susceptibility Result", "setting": "Escherichia coli; E. coli isolate 2, at sensitive breakpoint", "value": "Sensitive (Antimicrobial wells with pathogen load detected below the control wells (typically >2 cycle thresholds later) may be reported as Sensitive)"}, {"measurement": "Ct at Sensitive Breakpoint", "setting": "Escherichia coli; E. coli isolate 3, Ct at control (average) 22.0995", "value": 21.722}, {"measurement": "Molecular Antimicrobial Susceptibility Result", "setting": "Escherichia coli; E. coli isolate 3, at sensitive breakpoint", "value": "Sensitive (Antimicrobial wells with pathogen load detected below the control wells (typically >2 cycle thresholds later) may be reported as Sensitive)"}, {"measurement": "Ct at Sensitive Breakpoint", "setting": "Escherichia coli; E. coli isolate 4, Ct at control (average) 17.5733", "value": 32.06}, {"measurement": "Molecular Antimicrobial Susceptibility Result", "setting": "Escherichia coli; E. coli isolate 4, at sensitive breakpoint", "value": "Sensitive (Antimicrobial wells with pathogen load detected below the control wells (typically >2 cycle thresholds later) may be reported as Sensitive)"}, {"measurement": "Ct at Sensitive Breakpoint", "setting": "Escherichia coli; E. coli isolate 5, Ct at control (average) 21.0933", "value": 33.53}, {"measurement": "Molecular Antimicrobial Susceptibility Result", "setting": "Escherichia coli; E. coli isolate 5, at sensitive breakpoint", "value": "Sensitive (Antimicrobial wells with pathogen load detected below the control wells (typically >2 cycle thresholds later) may be reported as Sensitive)"}, {"measurement": "Ct of Sensitive Breakpoint", "setting": "M. morganii; Ct of controls (average) 19.99", "value": 33.37}, {"measurement": "Molecular Antimicrobial Susceptibility Result", "setting": "M. morganii; at sensitive breakpoint", "value": "Sensitive (Antimicrobial wells with pathogen load detected below the control wells (typically >2 cycle thresholds later) may be reported as Sensitive)"}, {"measurement": "Molecular Antibiotic Susceptibility Result", "setting": "[1]; E. coli, clinical sample of r10-r24", "value": "Sensitive (Antimicrobial wells with pathogen load detected below the control wells (typically >2 cycle thresholds later) may be reported as Sensitive)"}, {"measurement": "Ct", "setting": "[1]; E. coli, clinical sample of r10-r24, Ct Control Avg 18.112", "value": 29.981}, {"measurement": "Molecular Antibiotic Susceptibility Result", "setting": "[1]; E. coli, clinical sample of r158-r172", "value": "Sensitive (Antimicrobial wells with pathogen load detected below the control wells (typically >2 cycle thresholds later) may be reported as Sensitive)"}, {"measurement": "Ct", "setting": "[1]; E. coli, clinical sample of r158-r172, Ct Control Avg 20.146", "value": 34.794}, {"measurement": "Molecular Antibiotic Susceptibility Result", "setting": "[1]; E. faecalis, clinical sample of r93-r99", "value": "Sensitive (Antimicrobial wells with pathogen load detected below the control wells (typically >2 cycle thresholds later) may be reported as Sensitive)"}, {"measurement": "Ct", "setting": "[1]; E. faecalis, clinical sample of r93-r99, Ct Control Avg 22.987", "value": 38.744}, {"measurement": "Ct", "setting": "[1]; E. faecalis, clinical sample of r100-r106, Ct Control Avg 23.073", "value": 37.449}, {"measurement": "Ct", "setting": "[1]; E. faecalis, clinical sample of r107-r113, Ct Control Avg 22.144", "value": 32.584}, {"measurement": "Molecular Antibiotic Susceptibility Result", "setting": "[1]; E. faecalis, clinical sample of r114-r120", "value": "Sensitive (Antimicrobial wells with pathogen load detected below the control wells (typically >2 cycle thresholds later) may be reported as Sensitive)"}, {"measurement": "Ct", "setting": "[1]; E. faecalis, clinical sample of r114-r120, Ct Control Avg 20.822", "value": 34.318}, {"measurement": "Molecular Antibiotic Susceptibility Result", "setting": "[1]; E. faecalis, clinical sample of r151-r157", "value": "Sensitive (Antimicrobial wells with pathogen load detected below the control wells (typically >2 cycle thresholds later) may be reported as Sensitive)"}, {"measurement": "Molecular Antibiotic Susceptibility Result", "setting": "[1]; K. aerogenes, clinical sample of r136-r150", "value": "Sensitive (Antimicrobial wells with pathogen load detected below the control wells (typically >2 cycle thresholds later) may be reported as Sensitive)"}, {"measurement": "Ct", "setting": "[1]; K. aerogenes, clinical sample of r136-r150, Ct Control Avg 19.994", "value": 38.755}, {"measurement": "Molecular Antibiotic Susceptibility Result", "setting": "[1]; K. pneumoniae, clinical sample of r121-r135", "value": "Sensitive (Antimicrobial wells with pathogen load detected below the control wells (typically >2 cycle thresholds later) may be reported as Sensitive)"}, {"measurement": "Ct", "setting": "[1]; K. pneumoniae, clinical sample of r121-r135, Ct Control Avg 24.272", "value": 33.13}, {"measurement": "Molecular Antibiotic Susceptibility Result", "setting": "[1]; M. morganii, clinical sample of r55-r69", "value": "Sensitive (Antimicrobial wells with pathogen load detected below the control wells (typically >2 cycle thresholds later) may be reported as Sensitive)"}, {"measurement": "Molecular Antibiotic Susceptibility Result", "setting": "[1]; M. morganii, clinical sample of r70-r84", "value": "Sensitive (Antimicrobial wells with pathogen load detected below the control wells (typically >2 cycle thresholds later) may be reported as Sensitive)"}, {"measurement": "Molecular Antibiotic Susceptibility Result", "setting": "[1]; P. mirabilis, clinical sample of r25-r39", "value": "Resistant"}, {"measurement": "Ct", "setting": "[1]; P. mirabilis, clinical sample of r25-r39, Ct Control Avg 26.064", "value": 22.903}, {"measurement": "Molecular Antibiotic Susceptibility Result", "setting": "[1]; P. mirabilis, clinical sample of r40-r54", "value": "Resistant"}, {"measurement": "Ct", "setting": "[1]; P. mirabilis, clinical sample of r40-r54, Ct Control Avg 26.987", "value": 23.887}, {"measurement": "Molecular Antibiotic Susceptibility Result", "setting": "[1]; S. aureus, clinical sample of r85-r92", "value": "Sensitive (Antimicrobial wells with pathogen load detected below the control wells (typically >2 cycle thresholds later) may be reported as Sensitive)"}, {"measurement": "Ct", "setting": "[1]; S. aureus, clinical sample of r85-r92, Ct Control Avg 24.32", "value": 30.822}, {"measurement": "Ct of Sensitive Breakpoint", "setting": "E. coli; Ct of controls (average) 15.93", "value": 27.36}, {"measurement": "Molecular Antimicrobial Susceptibility Result", "setting": "E. coli; at sensitive breakpoint", "value": "Sensitive (Antimicrobial wells with pathogen load detected below the control wells (typically >2 cycle thresholds later) may be reported as Sensitive)"}]}
